Assays:
[1] = target: T1, N-ter-GST-HDAC-6 (Homo sapiens, UniProt Q9UBN7); test: HDAC-Glo I/II enzyme assay, HDAC6; format: biochemical
T1 construct: GST (N); purchased BPS Bioscience 50006
T1 sequence (Q9UBN7 1-1215): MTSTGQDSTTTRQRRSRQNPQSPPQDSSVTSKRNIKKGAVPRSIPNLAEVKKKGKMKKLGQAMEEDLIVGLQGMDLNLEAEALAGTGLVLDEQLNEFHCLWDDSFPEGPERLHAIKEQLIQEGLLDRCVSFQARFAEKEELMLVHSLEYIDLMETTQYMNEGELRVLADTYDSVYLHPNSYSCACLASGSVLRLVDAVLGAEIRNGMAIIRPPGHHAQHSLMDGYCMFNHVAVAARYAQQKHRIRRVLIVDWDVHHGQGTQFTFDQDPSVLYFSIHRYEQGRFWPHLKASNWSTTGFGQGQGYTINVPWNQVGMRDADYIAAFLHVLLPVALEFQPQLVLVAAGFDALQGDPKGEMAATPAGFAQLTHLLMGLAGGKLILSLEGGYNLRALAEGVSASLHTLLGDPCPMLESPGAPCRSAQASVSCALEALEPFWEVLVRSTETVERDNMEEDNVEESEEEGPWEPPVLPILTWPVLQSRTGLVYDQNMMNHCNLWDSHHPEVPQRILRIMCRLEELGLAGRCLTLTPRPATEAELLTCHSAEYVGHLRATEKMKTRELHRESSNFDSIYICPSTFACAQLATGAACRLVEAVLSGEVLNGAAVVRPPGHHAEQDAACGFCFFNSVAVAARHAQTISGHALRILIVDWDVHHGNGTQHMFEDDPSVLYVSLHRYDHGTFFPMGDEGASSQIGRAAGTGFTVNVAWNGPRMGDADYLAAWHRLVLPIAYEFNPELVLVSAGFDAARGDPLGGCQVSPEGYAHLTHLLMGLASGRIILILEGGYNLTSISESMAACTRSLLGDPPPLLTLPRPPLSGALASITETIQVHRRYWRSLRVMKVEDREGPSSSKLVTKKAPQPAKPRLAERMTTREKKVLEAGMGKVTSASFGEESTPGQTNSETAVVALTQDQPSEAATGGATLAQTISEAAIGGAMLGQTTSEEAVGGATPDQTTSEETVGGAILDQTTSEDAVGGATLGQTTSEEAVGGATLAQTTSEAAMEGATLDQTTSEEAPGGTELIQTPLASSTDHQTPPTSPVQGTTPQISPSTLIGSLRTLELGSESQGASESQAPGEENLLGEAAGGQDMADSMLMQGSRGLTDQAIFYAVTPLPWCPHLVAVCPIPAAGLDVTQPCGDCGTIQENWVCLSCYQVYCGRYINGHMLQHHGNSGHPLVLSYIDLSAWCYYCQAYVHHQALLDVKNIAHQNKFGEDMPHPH

[2] = tested on: DU-145; test: Wound healing assay, DU-145; format: cell-based; conditions: 4 μM, 72 h, 1% FBS
Protocol: (§1) Figure S20. Wound healing assay with iDual and ricolinostat. (A) MDA-MB-231 and (B) DU-145 […]
(§2) and ricolinostat for 72 h cells grown in relative medium with (1%) FBS conditions. Wound healing is photographed with Nikon Eclipse TS 100 microscope. Wound/healed area is quantified using Image […]

[3] = tested on: MDA-MB-231; test: Wound healing assay, MDA-MB-231; format: cell-based; conditions: 4 μM, 72 h, 1% FBS
Protocol: as §1, §2

[4] = tested on: THP-1 cells; test: Combination treatment with antileukemic drugs, THP-1 cell viability; format: cell-based; conditions: compound 5 μM 72 h, then compound + etoposide 0.2 μM 48 h
[5] = tested on: THP-1 cells; test: Annexin V/7-AAD staining (flow cytometry); format: cell-based; conditions: sublethal concentration (5 μM)
Protocol: Treated cells were centrifuged at 300× g for 5 min, and the pellet was resuspended with 1% FBS in PBS (5 × 10^5 cells/mL). Annexin V dye (Merck Millipore, Burlington, MA, USA, MCH100105) was mixed with the cell suspension in a 1:1 ratio and the mixture incubated at RT for 20 min.

| Compound | HDAC6/HDAC1 isoform selectivity [1] [fold] | IC50 ([1]; ± standard error, three independent measurements) [nM] | wound healing capacity DU-145 [2] | wound healing capacity MDA-MB-231 [3] | cell viability after pre-treatment with compound and co-treatment with etoposide [4] | apoptosis by annexin V/7-AAD staining, compound alone [5] |
| --- | --- | --- | --- | --- | --- | --- |
| O=C(NO)c1ccc(CN2CCC(CNC3(c4ccccc4)CC3)CC2)cc1 [iHDAC6] | > 30 | 230 ± 20 | – | – | – | – |
| O=C(NO)c1ccc(CN2CCC(CN[C@@H]3C[C@H]3c3ccccc3)CC2)cc1 (relative stereo) [iDual] | – | – | slowed down | slowed down | decreased cell viability was not observed | did not induce apoptosis |
